Laboratory results reported in US9139577B2, “Sulfoximine substituted quinazolines for pharmaceutical compositions” (Boehringer Ingelheim International GmbH, priority 2013, dated 2015).
pIC50: −log10 of the molar value.

Assays:
MNK2a = MNK2a (Homo sapiens (Human), UniProt Q9HBH9); assay: MNK2a in vitro kinase assay (Assay 2), ADP-Glo; format: biochemical; settings: read-out: MNK2 IC50
MNK1 = MNK1 (Homo sapiens (Human), UniProt Q9BUB5); assay: MNK1 in vitro kinase assay (Assay 3), Z'-LYTE; format: biochemical; settings: for inhibition at 1 µM: compound concentration of 1 μM, read-out: MNK1 % INH
From the text: C. MNK1 In vitro Kinase Assay (Assay 3)
MNK1 Data can be obtained from the MNK1 Z′-LYTE® assay. The MNK1 Z′-LYTE® screening protocol and assay conditions are also described on www.invitrogen.com.
The assay is described as follows:
The Z′-LYTE® biochemical assay employs a fluorescence-based, coupled-enzyme format and is based on the differential sensitivity of phosphorylated and non-phosphorylated peptides to proteolytic cleavage. The peptide substrate is labeled with two fluorophores—one at each end—that make up a FRET pair.
In the primary reaction, the kinase transfers the gamma-phosphate of ATP to a single tyrosine, serine or threonine residue in a synthetic FRET-peptide. In the secondary reaction, a site-specific protease recognizes and cleaves non-phosphorylated FRET-peptides. Phosphorylation of FRET-peptides suppresses cleavage by the Development Reagent. Cleavage disrupts FRET between the donor (i.e., coumarin) and acceptor (i.e., fluorescein) fluorophores on the FRET-peptide, whereas uncleaved, phosphorylated FRET-peptides maintain FRET. A ratiometric method, which calculates the ratio (the Emission Ratio) of donor emission to acceptor emission after excitation of the donor fluorophore at 400 nm, is used to quantitate reaction progress, as shown in the equation below.
ASSAY SETUP: The inhibition of kinase activity of MNK1a was assessed using pre-activated GST-MNK1a. The 2×MKNK1 (MNK1) mixture is prepared in 50 mM HEPES pH 7.5, 0.01% BRIJ-35, 10 mM MgCl2, 4 mM MnCl2, 1 mM EGTA, 2 mM DTT.
The Test Compounds are screened in 1% DMSO (final) in the well.
All Peptide/Kinase Mixtures are diluted to a 2× working concentration in the MNK1 Kinase Buffer.
All ATP Solutions are diluted to a 4× working concentration in Kinase Buffer (50 mM HEPES pH 7.5, 0.01% BRIJ-35, 10 mM MgCl2, 1 mM EGTA).
Development Reagent Solution:
The Development Reagent is diluted in Development Buffer
1. 2.5 μL—4× Test Compound
2. 5 μL—2× Peptide/Kinase Mixture
5. 60-minute Kinase Reaction incubation at room temperature
6. 5 μl—Development Reagent Solution
8. 60-minute Development Reaction incubation at room temperature
9. Read on fluorescence plate reader and analyze the data
The following equations are used for each set of data points: […]
Correction for Background Fluorescence: FlSample-FlTCFl Ctl
% Phosphorylation (% Phos): 1−((Emission Ratio×F100%)−C100%)/((C0%−C100%)+[Emission Ratio×(F100%−F0%)])*100%
% Inhibition: 1−(% PhosSample/% Phos0% Inhibition Ctl)*100
Fl=Fluorescence Intensity
C100%=Average Coumarin emission signal of the 100% Phos. Control
C0%=Average Coumarin emission signal of the 0% Phos. Control
F100%=Average Fluorescein emission signal of the 100% Phos. Control
F0%=Average Fluorescein emission signal of the 0% Phos. Control
SelectScreen® Kinase Profiling Service uses XLfit from IDBS.

MNK1, sequence (Q9BUB5 other isoform, or with tags, fused parts or gaps): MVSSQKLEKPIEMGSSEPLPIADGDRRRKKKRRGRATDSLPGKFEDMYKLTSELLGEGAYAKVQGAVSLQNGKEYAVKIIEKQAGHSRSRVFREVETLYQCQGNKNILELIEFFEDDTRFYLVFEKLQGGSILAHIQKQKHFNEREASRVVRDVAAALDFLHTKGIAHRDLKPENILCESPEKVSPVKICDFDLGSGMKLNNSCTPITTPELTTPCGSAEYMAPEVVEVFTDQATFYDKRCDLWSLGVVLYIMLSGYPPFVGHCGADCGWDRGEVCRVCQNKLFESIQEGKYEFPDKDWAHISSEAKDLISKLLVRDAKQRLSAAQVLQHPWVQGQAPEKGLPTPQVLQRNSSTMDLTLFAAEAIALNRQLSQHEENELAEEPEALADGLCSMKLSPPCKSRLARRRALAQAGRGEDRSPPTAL
MNK2a, sequence (Q9HBH9 whole entry): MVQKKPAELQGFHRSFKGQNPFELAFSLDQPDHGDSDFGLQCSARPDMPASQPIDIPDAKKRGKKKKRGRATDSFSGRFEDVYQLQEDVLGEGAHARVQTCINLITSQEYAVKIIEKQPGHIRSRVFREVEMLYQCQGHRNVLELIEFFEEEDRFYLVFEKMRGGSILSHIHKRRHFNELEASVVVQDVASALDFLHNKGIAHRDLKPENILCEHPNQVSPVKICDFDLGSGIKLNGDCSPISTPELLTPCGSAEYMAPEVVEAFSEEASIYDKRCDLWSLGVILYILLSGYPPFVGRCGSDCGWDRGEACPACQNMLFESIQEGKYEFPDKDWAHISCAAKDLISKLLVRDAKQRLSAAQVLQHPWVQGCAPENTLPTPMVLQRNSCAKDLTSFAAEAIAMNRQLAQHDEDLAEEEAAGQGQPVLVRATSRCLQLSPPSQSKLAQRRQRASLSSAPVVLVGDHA

## Cc1cc(N=S(C)(C)=O)cc2ncnc(Nc3ccc(F)cc3O[C@H](C)C(=O)N3CCN(C)CC3)c12 [Example 4.056]
MNK2a
  pIC50: 7.60
MNK1
  inhibition at 1 µM: 74%

## Cc1cc(N=S2(=O)CCCC2)cc2ncnc(Nc3ccc(F)cc3OC(C)C(C)(C)O)c12 (stereo not drawn) [Example 2.001]
MNK2a
  pIC50: 8.30
MNK1
  pIC50: 6.64

## Cc1cc(N=S(C)(C)=O)cc2ncnc(Nc3ccc(F)cc3O[C@H](C)CNS(C)(=O)=O)c12 [Example 5.003]
MNK2a
  pIC50: 7.08
MNK1
  inhibition at 1 µM: 38%

## Cc1cc(N=S2(=O)CCCC2)cc2ncnc(Nc3ccc(F)cc3OC(CF)CF)c12 [Example 1.011]
MNK2a
  pIC50: 8.70
MNK1
  pIC50: 7.47

## Cc1cc(N=S2(=O)CCCC2)cc2ncnc(Nc3cccnc3OCC3CCOC3)c12 (stereo not drawn) [Example 2.005]
MNK2a
  pIC50: 9.00
MNK1
  inhibition at 1 µM: 96%

## Cc1cc(N=S(C)(C)=O)cc2ncnc(Nc3ccc(F)cc3O[C@H](C)C(=O)NCC(F)(F)F)c12 [Example 4.071]
MNK2a
  pIC50: 9.00
MNK1
  pIC50: 7.26

## Cc1cc(N=S(C)(C)=O)cc2ncnc(Nc3ccc(F)cc3OC(C)C)c12 [Example 2.011]
MNK2a
  pIC50: 8.70
MNK1
  inhibition at 1 µM: 94%

## Cc1cc(N=S(C)(C)=O)cc2ncnc(Nc3ccc(F)cc3O[C@H](C)C(=O)N3CCC(O)C3)c12 (stereo partly drawn) [Example 4.005]
MNK2a
  pIC50: 7.55
MNK1
  inhibition at 1 µM: 74%

## C[C@H](NC(=O)[C@@H](C)Oc1cc(F)ccc1Nc1ncnc2cc(N=S(C)(C)=O)cc(F)c12)C(F)(F)F [Example 4.118]
MNK2a
  pIC50: 8.52
MNK1
  pIC50: 7.68
  inhibition at 1 µM: 99%

## C[C@@H](Oc1cc(F)ccc1Nc1ncnc2cc(N=S3(=O)CCC3)cc(F)c12)C(=O)NCC(F)(F)F [Example 4.100]
MNK2a
  pIC50: 8.70
MNK1
  pIC50: 7.85
  inhibition at 1 µM: 97%

## Cc1cc(N=S(C)(C)=O)cc2ncnc(Nc3ccc(F)cc3OC(C)C(C)(C)O)c12 (stereo not drawn) [Example 2.003]
MNK2a
  pIC50: 7.89
MNK1
  inhibition at 1 µM: 76%

## Cc1cc(N=S(C)(C)=O)cc2ncnc(Nc3ccc(F)cc3O[C@H](C)C(=O)NC(C(F)(F)F)C(F)(F)F)c12 [Example 3.054]
MNK2a
  pIC50: 9.00
MNK1
  pIC50: 7.29
  inhibition at 1 µM: 58%

## Cc1cc(N=S(C)(C)=O)cc2ncnc(Nc3ccc(F)cc3O[C@H](C)C(=O)N(C)C)c12 [Example 4.002]
MNK2a
  pIC50: 8.30
MNK1
  inhibition at 1 µM: 54%

## CC(Oc1cc(F)ccc1Nc1ncnc2cc(N=S(C)(C)=O)cc(F)c12)C(F)(F)F (stereo not drawn) [Example 1.020]
MNK2a
  pIC50: 8.15
MNK1
  inhibition at 1 µM: 80%

## Cc1cc(N=S(C)(C)=O)cc2ncnc(Nc3ccc(F)cc3OC(C)C#N)c12 (stereo not drawn) [Example 7.005]
MNK2a
  pIC50: 8.52
MNK1
  inhibition at 1 µM: 93%

## CCNC(=O)[C@@H](C)Oc1cc(F)ccc1Nc1ncnc2cc(N=S(C)(C)=O)cc(C)c12 [Example 4.034]
MNK2a
  pIC50: 8.52
MNK1
  pIC50: 7.29

## Cc1cc(N=S(C)(C)=O)cc2ncnc(Nc3ccc(F)cc3OC(CF)CF)c12 [Example 3.001]
MNK2a
  pIC50: 8.70
MNK1
  pIC50: 7.22

## Cc1cc(N=S2(=O)CCCC2)cc2ncnc(Nc3ccc(F)cc3O[C@H](C)C(=O)N(C)Cc3ccccc3)c12 [Example 4.017]
MNK2a
  pIC50: 8.05
MNK1
  inhibition at 1 µM: 73%

## Cc1cc(N=S2(=O)CCCC2)cc2ncnc(Nc3ccc(F)cc3O[C@H](C)C(=O)NCCO)c12 [Example 4.072]
MNK2a
  pIC50: 8.52
MNK1
  inhibition at 1 µM: 98%

## CCOC(Oc1ncccc1Nc1ncnc2cc(N=S(C)(C)=O)cc(C)c12)C(F)(F)F (stereo not drawn) [Example 1.008]
MNK2a
  pIC50: 8.10
MNK1
  inhibition at 1 µM: 63%

## Cc1cc(N=S(C)(C)=O)cc2ncnc(Nc3ccc(F)cc3O[C@H](C)C(=O)NCC(C)O)c12 (stereo partly drawn) [Example 4.020]
MNK2a
  pIC50: 8.40
MNK1
  inhibition at 1 µM: 98%

## COC1CCN(C(=O)[C@@H](C)Oc2cc(F)ccc2Nc2ncnc3cc(N=S(C)(C)=O)cc(C)c23)CC1 [Example 4.073]
MNK1
  inhibition at 1 µM: 70%

## CC(NC(=O)[C@@H](C)Oc1cc(F)ccc1Nc1ncnc2cc(N=S(C)(C)=O)cc(Cl)c12)C(F)F (stereo partly drawn) [Example 4.134]
MNK2a
  pIC50: 8.52

## Cc1cc(N=S2(=O)CCCC2)cc2ncnc(Nc3ccc(F)cc3O[C@H](C)C(=O)N3CCC3)c12 [Example 4.070]
MNK2a
  pIC50: 8.15

## Cc1noc(C(C)Oc2cc(F)ccc2Nc2ncnc3cc(N=S(C)(C)=O)cc(C)c23)n1 (stereo not drawn) [Example 3.036]
MNK2a
  pIC50: 8.05

## C[C@@H](Oc1cc(F)ccc1Nc1ncnc2cc(N=S(C)(C)=O)cc(Cl)c12)C(=O)NCC#N [Example 4.085]
MNK2a
  pIC50: 8.70

## C[C@@H](Oc1cc(F)ccc1Nc1ncnc2cc(N=S3(=O)CC4(COC4)C3)cc(Cl)c12)C(=O)NCC(F)(F)F [Example 2.024]
MNK2a
  pIC50: 8.52

## COc1cc(N=S2(=O)CCC2)cc2ncnc(Nc3ccc(F)cc3O[C@H](C)C(=O)N[C@@H](C)C(F)(F)F)c12 [Example 6.001]
MNK2a
  pIC50: 8.30

## Cc1cc(N=S(C)(C)=O)cc2ncnc(Nc3ccc(F)cc3O[C@H](C)C(=O)N[C@H](C)C(F)(F)F)c12 [Example 3.051]
MNK2a
  pIC50: 8.52

## CCN(CC)C(=O)[C@@H](C)Oc1cc(F)ccc1Nc1ncnc2cc(N=S3(=O)CCCC3)cc(C)c12 [Example 4.025]
MNK2a
  pIC50: 8.52

## C[C@@H](Oc1cc(F)ccc1Nc1ncnc2cc(N=S3(=O)CC(C)(C)C3)cc(Cl)c12)C(=O)NCC(F)(F)F [Example 2.037]
MNK2a
  pIC50: 8.70

## C[C@@H](Oc1cc(F)ccc1Nc1ncnc2cc(N=S3(=O)CCC3)cc(F)c12)C(=O)NCC(F)F [Example 4.123]
MNK2a
  pIC50: 8.52

## Cc1cc(N=S2(=O)CCC2)cc2ncnc(Nc3ccc(F)cc3O[C@H](C)C(=O)NCC#N)c12 [Example 4.103]
MNK2a
  pIC50: 9.00

## CC(Oc1ncccc1Nc1ncnc2cc(N=S(C)(C)=O)cc(F)c12)C(F)(F)F (stereo not drawn) [Example 1.007]
MNK2a
  pIC50: 8.10

## CC(NC(=O)[C@@H](C)Oc1cc(F)ccc1Nc1ncnc2cc(N=S3(=O)CCC3)cc(Cl)c12)C(F)F (stereo partly drawn) [Example 4.126]
MNK2a
  pIC50: 8.70

## Cc1cc(N=S(C)(C)=O)cc2ncnc(Nc3ccc(F)cc3O[C@H](C)C(=O)N(C)CCc3ccccc3)c12 [Example 4.037]
MNK1
  inhibition at 1 µM: 45%

## Cc1cc(N=S2(=O)CCCC2)cc2ncnc(Nc3ccc(F)cc3O[C@H](C)C(=O)N3CC[S+]([O-])CC3)c12 [Example 4.004]
MNK2a
  pIC50: 8.22

## Cc1cc(N=S2(=O)CCC2)cc2ncnc(Nc3ccc(Cl)cc3O[C@H](C)C(=O)NCC(F)F)c12 [Example 4.111]
MNK2a
  pIC50: 9.00

## CCOc1cc(N=S2(=O)CCC2)cc2ncnc(Nc3ccc(Cl)cc3O[C@H](C)C(=O)N[C@@H](C)C#N)c12 [Example 4.095]
MNK2a
  pIC50: 8.70

## Cc1cc(C(Oc2cc(F)ccc2Nc2ncnc3cc(N=S(C)(C)=O)cc(C)c23)C(F)(F)F)on1 (stereo not drawn) [Example 1.010]
MNK2a
  pIC50: 7.77

## Cc1cc(N=S(C)(C)=O)cc2ncnc(Nc3ccc(F)cc3O[C@H](C)C(=O)N3CCC3)c12 [Example 4.049]
MNK2a
  pIC50: 7.72

## Cc1cc(N=S2(=O)CC[C@@H](N)C2)cc2ncnc(Nc3ccc(F)cc3O[C@H](C)C(=O)NCC(F)(F)F)c12 (stereo partly drawn) [Example 2.020]
MNK2a
  pIC50: 8.52

## Cc1cc(N=S2(=O)CCC2)cc2ncnc(Nc3ccc(F)cc3O[C@H](C)C(=O)NC(C)C#N)c12 (stereo partly drawn) [Example 4.132]
MNK2a
  pIC50: 9.00

## Cc1cc(N=S2(=O)CCCC2)cc2ncnc(Nc3ccc(F)cc3O[C@H](C)C(=O)NCCF)c12 [Example 4.105]
MNK2a
  pIC50: 8.70

## C[C@@H](Oc1cc(F)ccc1Nc1ncnc2cc(N=S(C)(C)=O)cc(Cl)c12)C(=O)NCC(F)F [Example 4.080]
MNK2a
  pIC50: 8.70

## C[C@@H](C#N)NC(=O)[C@@H](C)Oc1cc(F)ccc1Nc1ncnc2cc(N=S3(=O)CCC3)cc(Cl)c12 [Example 4.137]
MNK2a
  pIC50: 9.00

## Cc1cc(N=S2(=O)CCC2)cc2ncnc(Nc3ccc(F)cc3O[C@H](C)C(=O)NCCF)c12 [Example 4.107]
MNK2a
  pIC50: 8.70

## Cc1cc(N=S2(=O)CCC2)cc2ncnc(Nc3ccc(Cl)cc3O[C@H](C)C(=O)N[C@@H](C)C#N)c12 [Example 4.147]
MNK2a
  pIC50: 8.52

## Cc1cc(N=S(C)(C)=O)cc2ncnc(Nc3ccc(F)cc3OC(C)Cn3cccn3)c12 (stereo not drawn) [Example 3.034]
MNK2a
  pIC50: 7.24

## COC(=O)N1CCS(=O)(=Nc2cc(C)c3c(Nc4ccc(F)cc4O[C@H](C)c4cc(C)no4)ncnc3c2)CC1 [Example 5.013]
MNK2a
  pIC50: 8.70

## CC(C)NC(=O)[C@@H](C)Oc1cc(F)ccc1Nc1ncnc2cc(N=S3(=O)CCC3)cc(F)c12 [Example 4.114]
MNK2a
  pIC50: 8.30
